For data set [1], the system named is 5/6 nephrectomized uremic rats. Nature of the data set: Endothelial function (aortic ring relaxation) in 5/6 nephrectomized uremic rats. The format is in vivo, Sprague Dawley rats. Particulars: 5/6 NX rats; for acetylcholine-induced endothelial-dependent aortic relaxation / sodium nitroprusside (SNP)-induced endothelial-independent relaxation: 2-week treatment, aortic rings precontracted with PE. Here is the method:
The experimental conditions using the 5/6 (subtotal) nephrectomized rats were as described above. Twenty-four hours after the last dose, the animals were sacrificed, and the aorta tissues were harvested for the determination of endothelial function.
Rats were anesthetized with pentobarbital sodium (i.p., 35 mg/kg). Thoracic aortas were excised in a cold modified Krebs solution (see below) and a 3 mm aortic ring was suspended in 10 mL tissue baths under 0.5 grams of resting tension in a modified Krebs solution containing (g/L): NaCl 6.9169, KCl 0.3499, NaHCO3 2.0998, MgSO4 0.2901, KH2 PO4 0.1604, CaCl2 0.2663, glucose 1.9994, EDTA 0.026, equilibrated with 5% CO2-95% 02 (pH 7.4 at 37° C.). Aortas were sensitized by the addition of phenylephrine (PE, 3 μM) with 10 min washouts between intervals. Aortas were precontracted with PE (3 μM), and the endothelium-dependent vasodilator acetylcholine (ACh) was added in half-log increments (10^−9 mol/L-10^−4.5 mol/L) at 3-5 min intervals, allowing time for the effect of ACh to plateau. After a 60 min washout, aortas were precontracted with PE (3 μM) and subsequently treated with endothelial-independent vasodilator sodium nitroprusside (SNP; 10^−9 mol/L-10^−6 mol/L) at 3-5 min intervals, allowing time for the effect to plateau. Data were recorded with the BL-420F Data Acquisition & Analysis System.
ACh and SNP-induced relaxation were calculated as the % relaxation of the PE-induced precontraction. Differences in vascular function were determined using a two-way ANOVA, followed by a Bonferonni post-hoc test. […] SNP serves as a source of nitric oxide and induces relaxation via an endothelial-independent pathway.

Data set [2] concerns CYP24A1. Nature of the data set: CYP24A1 expression induction in primary culture of human coronary artery smooth muscle cells. The format is cell-based. Particulars: HCASMC. Here is the method:
Compounds were tested in a primary culture of HCASMC to assess their potency in inducing the expression of CYP24A1 and VDR.
Primary culture of HCASMC was grown in smooth muscle growth medium SmGM-2 containing 5.5 mM glucose, 5% FBS, 50 μg/ml gentamicin, 50 ng/ml amphotericin-B, 5 μg/ml insulin, 2 ng/ml hFGF, and 0.5 ng/ml hEGF at 37° C. in a humidified 5% CO2-95% air. Cells were grown to >80% confluence and used within five passages.
Cells were plated into 6 well plates and treated with test agent for 24 h. Cells were lysed with the addition of 1 mL of Trizol and RNA prepared according to the manufacturer's protocol.
Real-time reverse transcription-PCR was performed with the forward and reverse PCR primers and […] of the TAQMAN™ probe specifically designed for CYP24A1 or VDR. (A TAQMAN™ probe is comprised of a fluorophore covalently attached to the 5′-end of the oligonucleotide probe and a quencher at the 3′-end.) After the data acquisition, the CYP24A1 or VDR mRNA expression level was normalized to the GAPDH mRNA level. […] Group mean±STDEV (standard deviation) are presented.

In data set [3] the test system is CYP24A1. Nature of the data set: CYP24A1 expression induction in HL-60 promyelocytic leukemia cells (real-time RT-PCR). Type of data set: cell-based. Particulars: Homo sapiens, HL-60 cells. The method, then:
Some compounds were tested in HL-60 promyelocytic leukemia cells and a primary culture of human coronary artery smooth muscle cells (HCASMC) for CYP24A1 induction. It is well documented that CYP24A1 has a VDRE in its promoter region and is a specific target gene of VDR (Meyer et al., 2007, J Biol Chem 282: 22344-22352). […] Compounds also were tested in HCASMC for their effects in inducing VDR. To assess the suitability of a compound for modulating immune responses, compounds were tested in HL-60 for their effects in inducing CD14 expression. To assess the suitability of a compound for treating thrombosis, compounds also were tested in HCASMC for their effects in modulating thrombomodulin and thrombospondin-1.
Compounds are tested in human HL-60 promyelocytic leukemia cells to assess their potency in inducing the expression of CYP24A1 and CD14. HL-60 cells are cultured in IMDM supplemented with 20% heat-inactivated fetal bovine serum at 37° C. in a humidified 5% CO2-95% air atmosphere. Cells are plated into 6 well plates and treated with test agent for 24 h. Cells are lysed with the addition of 1 mL of Trizol and RNA prepared according to the manufacturer's protocol.
Real-time reverse transcription-PCR is performed with the forward and reverse PCR primers and 250 nM of the TAQMAN™ probe specifically designed for CYP24A1 or CD14. (A TAQMAN™ probe is comprised of a fluorophore covalently attached to the 5′-end of the oligonucleotide probe and a quencher at the 3′-end.) After the data acquisition, the CYP24A1 or CD14 mRNA expression level is normalized to the GAPDH mRNA level. FIGS. 2A and 2B show the results from a typical CYP24A1 (FIG. 2A) and CD14 (FIG. 2B) expression study.
A general note: In qPCR the cycle at which signal appears reflects the starting amount.

The test system of a further data set is normal mice. Nature of the data set: Hypercalcemic side effect profile and serum PTH in normal mice. Type of data set: in vivo, Male C57/BL mice. The note with it: for dose at which compound starts to raise serum Ca: i.p. dosing once daily for 3 consecutive days. Here is the method:
The normal mice model is a convenient and quick way to assess the hypercalcemic side effect profile of compounds. At the same time, data on serum PTH can be collected.
Male C57/BL mice at 18-20 g are dosed with the test agent at 100 al/mouse (concentrations as indicated) i.p. once daily for 3 consecutive days or at 10 ml/kg, p.o. gavage, once daily for 5 days. The animals were harvested 24 h after the last dose by anesthetization with ketamine/xylazine. Blood was collected from the aorta. Serum total calcium was measured using the QuantiChrom Calcium Assay kit and/or the Roche Hitachi 912 Chemistry Analyzer. Serum PTH was measured using a PTH Immunoassay. Vehicle control was 100 l/mouse of 5% EtOH/95% propylene glycol for i.p. dosing or 10 ml/kg of 20% Hydroxypropyl-β-Cyclodextrin for p.o. gavage dosing.
For serum chemistry data, group mean±SEM are presented. Differences between vehicle and compound-treated groups are assessed using a one-way ANOVA followed by a Dunnett's post-hoc test. FIGS. 3A and 3B show the results from a typical p.o. gavage dosing study (n=4-9 per group).

Data set [4] can be described thus: Maximal absorbance wavelength and extinction coefficient (spectrophotometer scan). The format is physicochemical. The note with it: for maximal absorbance wavelength / extinction coefficient: 100 μM in 50:50 de-ionized water and ethanol; for extinction coefficient: in M-1·cm-1 (unit assumed). The method, then: To determine the maximal absorbance wavelength (ODmax) and the extinction coefficients for the compounds, each compound is diluted in a 50:50 solution (by volume) of de-ionized water and ethanol at 100 μM and scanned by a spectrophotometer.

The mark [5] stands for this setting: 24 h, Table 4 summary, some values average of 2 or more determinations, read-out: EC50 for CYP24A1 induction.
[6] abbreviates: 24 h, mRNA normalized to GAPDH, Table 3 summary, some values average of 3 or more determinations, read-out: CYP24A1 EC50.

Each structure is given as a SMILES string. pEC50: −log10 of the molar value. Entries after “also recorded” stand apart in the source; their conditions may differ.

As to `C=C1[C@H](O)CC(=C/C=C2\CCCC3(C)C2CCC3[C@@H](C)OC[C@H](C)C(C)(C)O)C[C@H]1O` (stereo partly drawn) [Vida-5, (1R,3R)-5-((E)-2-((3αS,7αS)-1-((R)-1-((S)-3-hydroxy-2,3-dimethylbutoxy)ethyl)-7α-methyldihydro-1H-inden-4(2H,5H,6H, 7H, 7αH)-ylidene)ethylidene)-2-methylenecyclohexane-1,3-diol], the “acetylcholine-induced endothelial-dependent aortic relaxation” value in data set [1] is “improves; also recorded: dose-dependent improvement; also recorded: potent in improving endothelial function”. In data set [1], the “sodium nitroprusside (SNP)-induced endothelial-independent relaxation” value (“sodium nitroprusside” below) was “no significant effect”. The pEC50 with CYP24A1 [2] (setting [5]) is 8.70; with CYP24A1 [2] (typical study, FIG. 5A, read-out: EC50 for inducing CYP24A1 expression) it was 8.54; with CYP24A1 [3] (setting [6]), 8.14; in the data set on CYP24A1 [3] (typical study, FIG. 2A, read-out: EC50 for inducing CYP24A1 expression), 8.25. In the data set on normal mice, the “dose at which compound starts to raise serum Ca” value is 1 µg/kg. The “dose at which compound starts to raise serum calcium” value with normal mice (p.o. gavage once daily for 5 days, FIG. 3A) is 5 µg/kg. In addition, the “dose at which compound starts to suppress PTH” value in the data set on normal mice (p.o. gavage once daily for 5 days, FIG. 3B) was 0.05 µg/kg. Further, in data set [4], the maximal absorbance wavelength was found to be 253 nm. For the same compound, the extinction coefficient in data set [4] was found to be 48360. In addition, the “maximal absorbance wavelength (ODmax)” value in data set [4] (FIG. 1, typical absorbance profile) is given as 253 nm.

With `CCC(O)(CC)CCO[C@H](C)C1CCC2/C(=C/C=C3C[C@@H](O)C4(CC4)[C@H](O)C3)CCCC21C` (stereo partly drawn) [Vida-10, (4R,8R)-6-((E)-2-((1S,7αS)-1-((R)-1-(3-ethyl-3-hydroxypentyloxy)ethyl)-7α-methyldihydro-1H-inden-4(2H,5H,6H,7H,7αH)-ylidene)ethylidene)spiro[2.5]octane-4,8-diol], in data set [1], the “acetylcholine-induced endothelial-dependent aortic relaxation” value is listed as “improves endothelial function; also recorded: dose-dependent improvement; also recorded: potent in improving endothelial function” and the “sodium nitroprusside” value is on record as “no significant effect”. For the same compound, in data set [1] (treatment with 0.16 and 0.64 μg/kg), the acetylcholine-induced endothelial-dependent relaxation result is “back to the Sham level”. The pEC50 with CYP24A1 [2] (setting [5]) was 9.41. Further, the negative-log EC50 (pEC50) in the data set with CYP24A1 [3] (setting [6]) is 8.17. The “dose at which compound starts to raise serum Ca” value in the data set with normal mice is 1 µg/kg. Further, in data set [4], the maximal absorbance wavelength turned out to be 253 nm and the extinction coefficient is listed as 46990.

Take `C=C1[C@H](O)CC(=C/C=C2\CCCC3(C)C2CCC3[C@@H](C)OCCC(O)(CC)CC)C[C@H]1O` (stereo partly drawn) [Vida-11, (1R,3R)-5-((E)-2-((1S,3αS,7αS)-1-((R)-1-(3-ethyl-3-hydroxypentyloxy)ethyl)-7α-methyldihydro-1H-inden-4(2H, 5H, 6H, 7H, 7αH)-ylidene)ethylidene)-2-methylenecyclohexane-1,3-diol]: in data set [1], the “acetylcholine-induced endothelial-dependent aortic relaxation” value is “improves; also recorded: dose-dependent improvement; also recorded: potent in improving endothelial function” and the “sodium nitroprusside” value is given as “no significant effect”. The pEC50 in the data set on CYP24A1 [2] (setting [5]) is 9.41. For the same compound, the pEC50 in the data set with CYP24A1 [3] (setting [6]) was 9.10. Further, the “dose at which compound starts to raise serum Ca” value with normal mice is 0.1 µg/kg. Also, in data set [4], the maximal absorbance wavelength came to 254 nm and the extinction coefficient is reported as 60100.

What is called pEC50 is the EC50 on a negative log10 scale, so that one unit is a factor of ten.

The values above are taken from patent US20180327354A1, “Unnatural Analogues of Calcitriol and Uses Thereof” (Vidasym, Inc., priority 2009, published 2018).
